Data taken from patent US20100209426A1, “INHIBITORS OF PROGASTRIN-INDUCED REPRESSION OF ICAT FOR TREATING AND/OR PREVENTING COLORECTAL CANCER, ADENOMATOUS POLYPOSIS OR METASTASIS DISPLAYING PROGASTRIN-SECRETING CELLS AND CELLS IN WHICH THE BETA-CATENIN/TCF-MEDIATED TRANSCRIPTIONAL PATHWAY IS CONSTITUTIVELY ACTIVE” (INSERM (INSTITUT NATIONAL DE LA SANTE ET DE LA REC HERCHE …, priority 2006, published 2010).

Experiments:
[1] = test system: Colo-26 murine CRC cells and Young adult mouse colon (YAMC) cells; test: GAST mRNA after siRNA transfection of murine cells (RT-QPCR); type: cell-based; settings: mouse cells (FIG. S1)
[2] = Plasma IL-6 and TNFα in siRNA-treated APCΔ14 mice; type: in vivo, mouse; settings: two-week treatment, GAST siRNA versus Luc siRNA
Experimental: (§1) APCΔ14 mice were housed in conventional conditions, and randomized in two groups. The first group (n=9), was treated once daily by intraperitoneal administration of 250 μg/kg siRNA against the murine GAST mRNA. Control mice (n=9) were treated with a similar dose of siRNA against Luciferase. (siRNA sequence on FIG. S7 online). […] Adenoma scoring in the intestine and colon was described in (Colnot et al., 2004). Samples of healthy intestinal mucosa, as well as intestinal and colon adenomas, were fixed in 4% PFA and paraffin-embedded, or frozen in liquid nitrogen, for Western blotting, IHC or RNA extraction. Plasma was prepared and assayed for IL-6 and TNFα using the FACSarray system (Becton Dickinson).

APCΔ14 mice = test: siRNA treatment of APCΔ14 mice (spontaneous intestinal tumorigenesis); type: in vivo, mouse
Experimental: as §1

## siRNA directed against the murine GAST gene: siRNA against the murine GAST mRNA; siRNAs mPG sense 5′-GAAGAGGCCUACGGAUGGTT-3′ (SEQ ID No 29), antisense SEQ ID No 30 (antisense CCAUCCGUAGGCCUCUUCTT; chemistry not given here)
[1]
  down-regulation of GAST in mouse cells: effective
[2]
  levels of plasma IL-6 and TNFα (proinflammatory response): No significant differences
APCΔ14 mice; APCΔ14 mice treated with siRNA
  ICAT expression in adenomas: significantly increased
  expression of Tcf-4 target genes in adenomas: strong repression
APCΔ14 mice; APCΔ14 mice treated with siRNA, immunohistochemistry
  number of cells staining for activated caspase 3 in adenomas: strongly elevated
APCΔ14 mice; APCΔ14 mice treated with siRNA, immunohistochemistry, compared to controls
  Muc-2 and Alcian-blue positive cells in remaining small intestinal and colonic adenomas: greatly increased numbers
APCΔ14 mice; APCΔ14 mice, 250 μg/kg siRNA intraperitoneal once daily for two weeks, compared to Luciferase siRNA control animals
  decrease in the total number of intestinal tumors: 20%
APCΔ14 mice; APCΔ14 mice, daily siRNA for two weeks, colon, Fischer's exact test p=0.228
  reduction in tumor size in the colon: not reaching significance
APCΔ14 mice; APCΔ14 mice, daily siRNA for two weeks, compared to Luciferase-specific siRNA
  GAST gene and progastrin expression in intestinal adenomas: reduction
APCΔ14 mice; APCΔ14 mice, daily siRNA for two weeks, compared to controls, Chi-square p<0.0001, n=9 per group
  tumor size in the intestine: significant reduction
APCΔ14 mice; APCΔ14 mice, daily siRNA for two weeks, ileum
  reduction in tumor size in the ileum: particularly marked
